Measurements from ChEMBL document CHEMBL3507680, “University of Dundee, Gates Library screen for HepG2 cell viability”.

Assay: Human HepG2 cell viability assay in 384 well format
Type: toxicity, cell-based
Parameters: dose 125 nL, time 70.5 hour; concentration not given beside the values
Settings: HepG2 cells, read-out: Inhibition

| Structure (SMILES) | cytotoxicity at 70.5 h [%] |
| --- | --- |
| COC(=O)c1sccc1S(=O)(=O)N1CCC(Oc2ncccc2Cl)CC1 | 2.59 |
| CN(C)C(=O)Cc1nc(CN2CCCCC2Cn2cccn2)cs1 (stereo not given) | 37 |
| COc1cc(NC(=O)NCCO)ccc1N1CCOC1=O | -6.58 |
| N#CC1=C(N)Nn2c(nnc2-c2ccccc2F)S1 | -36.2 |
| CCN(CC1CCOC1)C(=O)Nc1ccc(N2CCOCC2)nc1 (stereo not given) | 18.9 |
| CCOc1cccc(CNC(=O)C(C)(C)C#N)c1OC(F)F | -2.64 |
| CCc1nccc(CN2CCC(CNC(=O)[C@H]3CC[C@H](C)CC3)C2)n1 (stereo not given in full) | 27.6 |
| Cc1ccc(Nc2cc(N3CCN(S(C)(=O)=O)CC3)nc(C)n2)cc1 | -17.3 |
| CN(C)S(=O)(=O)c1ccc(CN2CCCC2CO)o1 (stereo not given) | -17 |
| Cc1c(C(=O)N2CC(C)(C)C2(C)C)nnn1-c1cccc2cnccc12 | -2.78 |
| COc1cccc(C(=O)N2CCC(Nc3ccc(C)nn3)CC2)c1 | 1.25 |
| O=C(c1c2c(N3CCCC3)ncnc2n2ccccc12)N1CCOCC1 | -5.97 |
| Cc1cc(C(=O)NCC(=O)NC(c2ncccc2C)C(C)C)c(C)o1 (stereo not given) | 3.7 |
| O=C(NCCCO)Nc1cccc(I)c1 | -5.84 |
| Fc1cccc(N2CCCC3(C2)CN(c2ncccn2)CCO3)c1 (stereo not given) | -0.813 |
| OCCc1cc(C2CCCN2c2ncccn2)n[nH]1 (stereo not given) | -2.35 |
| CC(C)c1cc(=O)[nH]c(-c2ccccc2CN2CCCCCC2)n1 | -13.2 |
| COCCn1cnnc1C1CCCN(C(C)C)C1 (stereo not given) | 17.1 |
| Clc1cc(CN2CCCN3CCCC3C2)c2ncccc2c1 (stereo not given) | -2.91 |
| O=C1c2cnc(N3CCOCC3)nc2CN1c1ccc2c(c1)OCO2 | -5.67 |
| O=C(c1ccco1)N1CCCC(c2cc(C(F)(F)F)n3ncnc3n2)C1 (stereo not given) | 28.3 |
| CCn1cc(CN2CCCN(C(=O)CCN3CCCC3=O)CC2)cn1 | -3.66 |
| CN(C)C(C(=O)NCCn1cccc1)c1cccc(F)c1 (stereo not given) | -4.48 |

| Structure (SMILES) | cytotoxicity at 70.5 h [%] |
| --- | --- |
| CC(C)C(=O)NC1CCN(c2cccc(OC(F)(F)F)c2)C1=O (stereo not given) | 8.86 |
| CC(CO)(NC(=O)Nc1nnc(C2CC2)s1)C1CCCCC1 (stereo not given) | -11.1 |
| Cc1cc(OCC(=O)N2CCCC(c3noc(C)n3)C2)no1 (stereo not given) | -5.48 |
| Cc1ccc(C2CN(CCCS(=O)(=O)C(C)C)CCO2)c(C)c1 (stereo not given) | -2.16 |
| Cc1csc(NC(=O)Cn2nc(C)ccc2=O)n1 | -9.42 |
| Cc1c(Cn2ccnc2-c2cc(CN(C)C)cs2)cnn1C | 3.72 |
| Cc1nn(C)c(Cl)c1C1CCCN1Cc1nnc(C2CC2)o1 (stereo not given) | -5.62 |
| CC(NCc1c(C(C)C)nn(C)c1N(C)C)C(=O)NC1CCCC1 (stereo not given) | -6.36 |
| Cc1cc(CC(C)Nc2nc(-c3cccnc3)nc3c2CNC3)[nH]n1 (stereo not given) | -12 |
| CCC(C)NC(=O)Nc1cccc(OCCCC#N)c1 (stereo not given) | -8.47 |
| O=C(NCC(=O)N1CCC2(CC1)OCCO2)c1ccoc1 | -7.96 |
| CO[C@@H]1CO[C@@]2(CCCN(S(=O)(=O)c3ccccc3)C2)C1 | -14.8 |
| COc1ccc(CN(C)CC2CCCN2c2cccnn2)cc1F (stereo not given) | 44.2 |
| CC(C)N1c2sc(-c3ccccc3)nc2CC1C(=O)NCCCO (stereo not given) | -5.59 |
| O=C(c1nc(=O)[nH][nH]1)N1CCC2(CCCCC2)C1 | 20.2 |
| COc1cc2c(cc1CN1CCC3(CCCN(C)C3=O)C1)OCCO2 (stereo not given) | -15.9 |
| COCC(=O)N1CC[C@@H](N2CCN(C)CC2)[C@@H]1Cc1ccccc1 | 9.62 |
| Cn1nc(CN2CCCCC2)c2c1CN(C(=O)c1cccc(C#N)c1)C2 | 15.7 |
| CN(Cc1ccncc1)C(CO)c1cccc(Br)c1 (stereo not given) | -21 |
| N#Cc1cccc(S(=O)(=O)NC(=O)C2CC(c3ccccc3)=NO2)c1 (stereo not given) | -18.7 |
| COc1ccc(NC(=O)N(C)Cc2ccc(Br)o2)cn1 | -6.19 |
| CC(NC(=O)NCCCn1ccnc1)c1ccc2c(c1)OCCCO2 (stereo not given) | -10.6 |
| CN1CCC(c2cncc(N(C)C)n2)CC1 | -4.58 |

| Structure (SMILES) | cytotoxicity at 70.5 h [%] |
| --- | --- |
| CCc1ncc(C(=O)NC(C)(C)C(=O)OC)s1 | 12.2 |
| CC(C)CC(C(=O)N1CCCSCC1)N1CCCCC1=O (stereo not given) | -3.18 |
| CSCC(=O)N1CCc2[nH]nc(-c3ccc4c(c3)OCO4)c2C1 | 0.0699 |
| Cc1ccc(N2CCCC3(CCN(C(=O)C4CC4)C3)C2)nn1 (stereo not given) | -3.58 |
| c1cncc(N2CCCn3nnc(CN4CCOCC4)c3C2)c1 | -5 |
| CC(Cn1cccn1)NCc1csc(-c2ccc(F)cc2)n1 (stereo not given) | 5.69 |
| Cc1cc(C)n(CC(=O)N2CCCCC2CCN2CCCC2=O)c(=O)n1 (stereo not given) | -12.3 |
| CNC(=O)N(C)CC1(c2ccc(Br)cc2)CC1 | -3.73 |
| c1ccc(CN2C[C@H]3CC[C@@H]2CN(Cc2nnc(C4CC4)o2)C3)cc1 | -1.91 |
| Cc1nn(C)c(Cl)c1C1CCCN1C(=O)c1ccc2c(c1)COC2 (stereo not given) | -0.781 |
| COCCNC(=O)CN(C)Cc1ccc(F)cc1Cl | -10.1 |
| CCC1=N[C@@]2(CC[C@@H]3CN(S(=O)(=O)CC)C[C@@H]32)C(=O)N1CCOC | -2.77 |
| Cc1nn(CC(=O)O)c(C)c1NS(=O)(=O)c1cc2ccccc2s1 | 24.3 |
| CCCc1nc(C(C)(C)NC(=O)C2CC(=O)N(CCOC)C2)no1 (stereo not given) | -10.7 |
| C[C@H]1C[C@H]2CN(S(=O)(=O)c3ccc(F)cc3)CC[C@H]2O1 | 13.7 |
| COc1cccc(-c2cnnc(N(C)CCC3CCCCO3)n2)c1 (stereo not given) | 0.0165 |
| CC(C)CCc1n[nH]c(C(=O)O)c1Cl | 16.9 |
| O=C(N[C@@H]1CN(Cc2cccs2)[C@@H]2COC[C@@H]21)C1CCC1 | -4.79 |
| CSc1cccc(NC(=O)N2CCC3(CCC(=O)N(C4CC4)C3)CC2)c1 | -9.9 |
| Cc1ccc(CN2CCNC(=O)C2CC(=O)NCc2n[nH]c(C)n2)cc1 (stereo not given) | -3.13 |
| Cc1cn2nc(N3CCn4c(nnc4C(C)C)C3)sc2n1 | 12 |
| CC(C)SCCn1ccc2[nH]c(=O)c(C#N)cc2c1=O | -8.8 |
| C[C@]1(O)CCN(Cc2ncccc2F)C[C@@H]1Oc1cccc(F)c1 | -3.05 |

| Structure (SMILES) | cytotoxicity at 70.5 h [%] |
| --- | --- |
| CC(=O)N1CCN(CCNc2ncc(Br)cc2C)CC1 | -1.98 |
| Cc1cc(CNC(=O)COc2ccccc2F)c(C)o1 | -0.958 |
| c1nc2c(c(C3CC3)n1)CCN(Cc1ccc3c(c1)OCO3)CC2 | -4.69 |
| NC(=O)C1CCN(C(=O)c2ccccc2OCc2ccncc2)CC1 | -12.3 |
| Clc1snnc1CN1CCCCC1Cn1cncn1 (stereo not given) | 11.8 |
| CCNS(=O)(=O)C1CCN(C(=O)c2c(F)cc(F)cc2F)C1 (stereo not given) | -2.04 |
| Cc1csc(C2CCCCN2C(=O)c2cc(C)n(C)n2)n1 (stereo not given) | 25.5 |
| CC(C)n1c(=O)nc2n1C(=O)N(c1ccc(F)cc1)C2 | -10.1 |
| O=S1(=O)CCC(n2cc(C3=CCN(CCn4cccc4)CC3)cn2)C1 (stereo not given) | 26.8 |
| OCC(O)CSCc1cc(Cl)ccc1Cl (stereo not given) | -3.91 |
| COc1ccccc1N1CCC(NCc2c(C)noc2C)C1 (stereo not given) | 30 |
| CC(C)n1[nH]c(=O)c2c1NC(=O)CSC2c1cccc(OCC(N)=O)c1 (stereo not given) | -11.3 |
| CCS(=O)(=O)CCSc1ccc(Cl)cc1 | 27 |
| NC(=O)CC1c2cccnc2C(=O)N1Cc1ccccc1 (stereo not given) | -6.46 |
| O=C(Nc1ccc(Cl)cn1)C1CCCN(CCc2ccncc2)C1 (stereo not given) | -1.77 |
| CC(C)c1nsc(NC2CCOC3(CCCC3)C2)n1 (stereo not given) | -0.215 |
| O=C(C[C@@H]1COC[C@H]2CN(Cc3ccc(F)cc3)C[C@@H]12)N1CCCC1 | 2.93 |
| CC(C)c1nnc2n1CCN(C(=O)COc1ccc(C(N)=O)cc1)C2 | -6.98 |
| c1cc(CNCC2OCCc3cn(CC4CCOCC4)nc32)ccn1 (stereo not given) | 9.22 |
| CCCc1cc(=O)[nH]c2nnc(SCC(N)=O)n12 | 23.3 |
| CNC(=O)CSC(C)c1ccc(Br)cc1 (stereo not given) | 2.63 |
| Cc1nsc(N2CCCN(c3nc(C4CC4)ns3)CC2)n1 | 1.36 |
| Cn1cccc1C(=O)N1CC[C@H]2[C@H]1CCN2CC1CCOCC1 | -0.0713 |

| Structure (SMILES) | cytotoxicity at 70.5 h [%] |
| --- | --- |
| N[C@H]1CN(CCOc2ccc(F)cc2)C[C@@H]1C1CC1 | 14.7 |
| Cn1cccc1C(=O)N1CCCN(CCCc2ccccc2)CC1 | 7.34 |
| CN(C)c1cc2c(nn1)CCN(C(=O)c1cc3c(s1)CCOC3)C2 | -15.2 |
| CN1CCC(CCc2ccnc(Nc3cnccn3)c2)CC1 | -4.49 |
| CS(=O)(=O)N1CCC2(CC1)COC(COc1cccnc1)C2 (stereo not given) | -8.18 |
| CC[C@@]1(O)CCN(C(=O)c2ccc(-c3ccco3)cc2)C[C@H]1O | -5.37 |
| Cc1cnn(CC2CCCCN2c2nn3cc(C)nc3s2)c1 (stereo not given) | 21.1 |
| COCCCC1(CO)CCCN(CCOC)C1 (stereo not given) | -4.83 |
| CC(=O)N1CCC(c2nccnc2Nc2ncc(C)s2)CC1 | -10.6 |
| CC(Cc1ccco1)NC(=O)NCc1ncnn1C (stereo not given) | 3.51 |
| Cc1cc(C)c(CCNC(=O)CN2CCCN(C(N)=O)CC2)c(C)c1 | 15.4 |
| COc1ccc(N2CCC(NS(=O)(=O)N(C)C(C)C)CC2)cc1 | 7.03 |
| CCn1ccnc1C1CCN(C(=O)C(O)c2ccc(Cl)cc2)CC1 (stereo not given) | -2.92 |
| Cc1cc2ccncc2n1CC1(O)CCN(C(=O)c2cccnc2)CC1 | -0.954 |
| O=C(c1c(O)cnc2ccccc12)N1CCN(CC(F)F)CC1 | -3.97 |
| Cc1cnn(CC(C)NCc2ccc(OCC(N)=O)cc2)c1 (stereo not given) | 11.6 |
| Fc1ccc(OCc2nnc([C@H]3CCN(Cc4ccncc4)C3)o2)cc1 | -6.85 |
| CCn1nc(C)c(CCn2ccnc2-c2cc3n(n2)CCNC3)c1C | -0.934 |
| COc1cccc2c1OCC(NC(=O)NCCc1ccccn1)C2 (stereo not given) | -9.54 |
| c1ccc(-c2nnc(N3CCCC4(CCOC4)C3)s2)cc1 (stereo not given) | 1.41 |
| CCS(=O)(=O)N1CCC2(CCC2NC(=O)c2ccn(C)c2)CC1 (stereo not given) | -7.91 |
| Cc1cccc(CN2CCn3cc(CNC(=O)CC4CC4)nc3C2)n1 | -5.24 |
| CCn1cc(NC(=O)C2CCC(=O)N2Cc2ccco2)cn1 (stereo not given) | -6.35 |
